What was measured:
Assay type in all cases: in vivo
[1] = system: smallflower flatsedge (Cyperus difformis); assay: Test B flooded paddy test; conditions: Rate 1000 g/ha, scale of 0 to 100 where 0 is no effect and 100 is complete control, visually evaluated after 13 to 15 days
Description: (§1) At the same time, plants selected from these crop and weed species and also blackgrass (Alopecurus myosuroides), wheat (Triticum aestivum) and wild oat (Avena fatua) were treated with postemergence applications of test chemicals formulated in the same manner. Plants ranged in height from 2 to 18 cm (1- to 4-leaf stage) for postemergence treatments. Plant species in the flooded paddy test consisted of rice (Oryza saliva), smallflower flatsedge (Cyperus difformis), duck salad (Heteranthera limosa) and barnyardgrass (Echinochloa crus-galli) grown to the 2-leaf stage for testing. Treated plants and controls were maintained in a greenhouse for 13 to 15 days, after which time all species were compared to controls and visually evaluated. Plant response ratings, summarized in Table B, are based on a scale of 0 to 100 where 0 is no effect and 100 is complete control. A dash (-) response means no test result.

[2] = system: duck salad (Heteranthera limosa); assay: Test B flooded paddy test; conditions: Rate 1000 g/ha, scale of 0 to 100 where 0 is no effect and 100 is complete control, visually evaluated after 13 to 15 days
Description: as §1

[3] = system: rice (Oryza saliva); assay: Test B flooded paddy test; conditions: Rate 1000 g/ha, scale of 0 to 100 where 0 is no effect and 100 is complete control, visually evaluated after 13 to 15 days
Description: as §1

[4] = system: barnyardgrass (Echinochloa crus-galli); assay: Test B flooded paddy test; conditions: Rate 1000 g/ha, scale of 0 to 100 where 0 is no effect and 100 is complete control, visually evaluated after 13 to 15 days
Description: as §1

[5] = system: wheat (Triticum aestivum); assay: Test B postemergence; conditions: 13 to 15 days
In short: (§2)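 Post-treatment, species sat 13–15 days under greenhouse conditions before visual scoring against controls, 0 (no effect) through 100 (complete control). Application preemergence to sown seeds or postemergence at 1- to 4-leaf stage, using a non-phytotoxic solvent/surfactant formulation.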

[6] = system: cocklebur (Xanthium strumarium); assay: Test B postemergence; conditions: 13 to 15 days
In short: as §2

[7] = system: crabgrass (Digitaria sanguinalis); assay: Test B postemergence; conditions: 13 to 15 days
In short: as §2

[8] = system: pigweed (Amaranthus retroflexus); assay: Test B postemergence; conditions: 13 to 15 days
In short: as §2

[9] = system: lambsquarters (Chenopodium album); assay: Test B postemergence; conditions: 13 to 15 days
In short: as §2

[10] = system: giant foxtail (Setaria faberii); assay: Test B postemergence; conditions: 13 to 15 days
In short: as §2

[11] = system: morning glory (Ipomoea hederacea); assay: Test B postemergence; conditions: 13 to 15 days
In short: as §2

[12] = system: wild oat (Avena fatua); assay: Test B postemergence; conditions: 13 to 15 days
In short: as §2

[13] = system: Surinam grass (Brachiaria decumbens); assay: Test B postemergence; conditions: 13 to 15 days
In short: as §2

[14] = system: blackgrass (Alopecurus myosuroides); assay: Test B postemergence; conditions: 13 to 15 days
In short: as §2

[15] = system: corn (Zea mays); assay: Test B postemergence; conditions: 13 to 15 days
In short: as §2

[16] = system: barnyardgrass (Echinochloa crus-galli); assay: Test B postemergence; conditions: 13 to 15 days
In short: as §2

[17] = system: velvetleaf (Abutilon theophrasti); assay: Test B postemergence; conditions: 13 to 15 days
In short: as §2

[18] = system: cocklebur (Xanthium strumarium); assay: Test B preemergence
In short: as §2

[19] = system: rice (Oryza saliva); assay: Test B preemergence
In short: as §2

[20] = system: crabgrass (Digitaria sanguinalis); assay: Test B preemergence
In short: as §2

[21] = system: pigweed (Amaranthus retroflexus); assay: Test B preemergence
In short: as §2

[22] = system: lambsquarters (Chenopodium album); assay: Test B preemergence
In short: as §2

[23] = system: giant foxtail (Setaria faberii); assay: Test B preemergence
In short: as §2

[24] = system: morning glory (Ipomoea hederacea); assay: Test B preemergence
In short: as §2

[25] = system: Surinam grass (Brachiaria decumbens); assay: Test B preemergence
In short: as §2

[26] = system: corn (Zea mays); assay: Test B preemergence
In short: as §2

[27] = system: barnyardgrass (Echinochloa crus-galli); assay: Test B preemergence
In short: as §2

[28] = system: velvetleaf (Abutilon theophrasti); assay: Test B preemergence
In short: as §2

[29] = Rate 500 g/ha, scale 0 to 100, 0 is no effect, 100 is complete control
[30] = Rate 125 g/ha, scale 0 (no effect) to 100 (complete control)
[31] = Preemergence, Rate 500 g/ha, scale 0 to 100, 0 no effect, 100 complete control
[32] = preemergence, Rate 125 g/ha, scale of 0 to 100 where 0 is no effect and 100 is complete control, 13 to 15 days
[33] = preemergence, Rate 125 g/ha, scale 0 to 100, 0 no effect, 100 complete control

CC(C)(C)c1ccn(C2CCN(c3cccc(OC(=O)C(F)(F)F)c3)C2=O)n1 (stereo not drawn) [Compound 94]
10: Plant response rating, Pigweed [8, 29]
0: Plant response rating, Flatsedge [1] | Plant response rating, Ducksalad [2] | Plant response rating, Rice [3] | Plant response rating, Barnyardgrass [4] | Plant response rating, Wheat [5, 29] | Plant response rating, Cocklebur [6, 30] | Plant response rating, Cocklebur [6, 29] | Plant response rating, Crabgrass [7, 30] | Plant response rating, Crabgrass [7, 29] | Plant response rating, Foxtail, Giant [10, 30] | Plant response rating, Foxtail, Giant [10, 29] | Plant response rating, Morningglory [11, 29] | Plant response rating, Wild Oat [12, 29] | Plant response rating, Surinam grass [13, 30] | Plant response rating, Surinam grass [13, 29] | Plant response rating, Blackgrass [14, 30] | Plant response rating, Blackgrass [14, 29] | Plant response rating, Corn [15, 30] | Plant response rating, Corn [15, 29] | Plant response rating, Barnyardgrass [16, 30] | Plant response rating, Barnyardgrass [16, 29] | Plant response rating, Velvetleaf [17, 29] | Plant response rating, Cocklebur [18, 31] | Plant response rating, Cocklebur [18, 32] | Plant response rating, Rice [19, 32] | Plant response rating, Crabgrass [20, 32] | Plant response rating, Pigweed [21, 31] | Plant response rating, Pigweed [21, 32] | Plant response rating, Lambsquarters [22, 32] | Plant response rating, Foxtail, Giant [23, 31] | Plant response rating, Foxtail, Giant [23, 32] | Plant response rating, Morningglory [24, 31] | Plant response rating, Morningglory [24, 32] | Plant response rating, Surinam grass [25, 31] | Plant response rating, Surinam grass [25, 32] | Plant response rating, Corn [26, 31] | Plant response rating, Corn [26, 32] | Plant response rating, Barnyardgrass [27, 31] | Plant response rating, Barnyardgrass [27, 32] | Plant response rating, Velvetleaf [28, 32]
100: Plant response rating, Lambsquarters [22, 31]
20: Plant response rating, Lambsquarters [9, 29] | Plant response rating, Rice [19, 31]
70: Plant response rating, Velvetleaf [28, 31]
30: Plant response rating, Crabgrass [20, 31]

CCOc1ccn(C2CCN(c3cccc(C(F)(F)F)c3)C2=O)n1 (stereo not drawn) [Compound 61]
20: Plant response rating, Flatsedge [1]
0: Plant response rating, Rice [3] | Plant response rating, Barnyardgrass [4] | Plant response rating, Wheat [5, 30] | Plant response rating, Wheat [5, 29] | Plant response rating, Cocklebur [6, 30] | Plant response rating, Cocklebur [6, 29] | Plant response rating, Crabgrass [7, 30] | Plant response rating, Crabgrass [7, 29] | Plant response rating, Pigweed [8, 30] | Plant response rating, Pigweed [8, 29] | Plant response rating, Lambsquarters [9, 30] | Plant response rating, Lambsquarters [9, 29] | Plant response rating, Foxtail, Giant [10, 30] | Plant response rating, Foxtail, Giant [10, 29] | Plant response rating, Morningglory [11, 30] | Plant response rating, Morningglory [11, 29] | Plant response rating, Wild Oat [12, 30] | Plant response rating, Wild Oat [12, 29] | Plant response rating, Surinam grass [13, 30] | Plant response rating, Surinam grass [13, 29] | Plant response rating, Blackgrass [14, 30] | Plant response rating, Blackgrass [14, 29] | Plant response rating, Corn [15, 30] | Plant response rating, Corn [15, 29] | Plant response rating, Barnyardgrass [16, 30] | Plant response rating, Barnyardgrass [16, 29] | Plant response rating, Velvetleaf [17, 30] | Plant response rating, Velvetleaf [17, 29] | Plant response rating, Cocklebur [18, 31] | Plant response rating, Cocklebur [18, 32] | Plant response rating, Rice [19, 31] | Plant response rating, Rice [19, 32] | Plant response rating, Crabgrass [20, 31] | Plant response rating, Crabgrass [20, 32] | Plant response rating, Pigweed [21, 31] | Plant response rating, Pigweed [21, 32] | Plant response rating, Foxtail, Giant [23, 31] | Plant response rating, Foxtail, Giant [23, 32] | Plant response rating, Morningglory [24, 31] | Plant response rating, Morningglory [24, 32] | Plant response rating, Surinam grass [25, 31] | Plant response rating, Surinam grass [25, 32] | Plant response rating, Corn [26, 31] | Plant response rating, Corn [26, 32] | Plant response rating, Barnyardgrass [27, 31] | Plant response rating, Barnyardgrass [27, 32] | Plant response rating, Velvetleaf [28, 31] | Plant response rating, Velvetleaf [28, 32]
30: Plant response rating, Ducksalad [2]

CC(C)(C)c1ccn(C2C(=O)N(c3cccc(C(F)(F)F)c3)C[S+]2[O-])n1 (stereo not drawn) [Compound 29]
70: Plant response rating, Pigweed [21, 31]
30: Plant response rating, Flatsedge [1] | Plant response rating, Pigweed [8, 30] | Plant response rating, Pigweed [8, 29] | Plant response rating, Morningglory [24, 31]
0: Plant response rating, Ducksalad [2] | Plant response rating, Rice [3] | Plant response rating, Barnyardgrass [4] | Plant response rating, Wheat [5, 30] | Plant response rating, Wheat [5, 29] | Plant response rating, Cocklebur [6, 30] | Plant response rating, Cocklebur [6, 29] | Plant response rating, Crabgrass [7, 30] | Plant response rating, Lambsquarters [9, 30] | Plant response rating, Foxtail, Giant [10, 30] | Plant response rating, Foxtail, Giant [10, 29] | Plant response rating, Morningglory [11, 30] | Plant response rating, Morningglory [11, 29] | Plant response rating, Wild Oat [12, 30] | Plant response rating, Wild Oat [12, 29] | Plant response rating, Surinam grass [13, 30] | Plant response rating, Surinam grass [13, 29] | Plant response rating, Blackgrass [14, 30] | Plant response rating, Blackgrass [14, 29] | Plant response rating, Corn [15, 30] | Plant response rating, Corn [15, 29] | Plant response rating, Barnyardgrass [16, 30] | Plant response rating, Barnyardgrass [16, 29] | Plant response rating, Velvetleaf [17, 30] | Plant response rating, Cocklebur [18, 31] | Plant response rating, Cocklebur [18, 33] | Plant response rating, Rice [19, 31] | Plant response rating, Crabgrass [20, 31] | Plant response rating, Crabgrass [20, 33] | Plant response rating, Lambsquarters [22, 33] | Plant response rating, Foxtail, Giant [23, 31] | Plant response rating, Foxtail, Giant [23, 33] | Plant response rating, Surinam grass [25, 31] | Plant response rating, Surinam grass [25, 33] | Plant response rating, Corn [26, 31] | Plant response rating, Corn [26, 33] | Plant response rating, Barnyardgrass [27, 33]
20: Plant response rating, Lambsquarters [9, 29] | Plant response rating, Velvetleaf [17, 29] | Plant response rating, Barnyardgrass [27, 31] | Plant response rating, Velvetleaf [28, 31]
100: Plant response rating, Lambsquarters [22, 31]
50: Plant response rating, Crabgrass [7, 29]

Reference: patent US7138361B2, “Herbicidal heterocycles” (E. I. du Pont de Nemours and Company, priority 2000, dated 2006)
